Data published in paper PMC9043238, “Evaluation of Potential DnaK Modulating Proline-Rich Antimicrobial Peptides Identified by Computational Screening” (Frontiers in Chemistry, 2022).
“Also recorded” adds a separate entry of the source.

How the values were obtained:
[1] = test system: Staphylococcus aureus ATCC 29213; assay: Antibacterial MIC assay, S. aureus; type: cell-based; conditions: MHB, up to 128 µM, 24 h growth, OD read-out; result in words
Protocol: (§1) For the antimicrobial assays, the strains used were as follows: Staphylococcus aureus ATCC 29213, Escherichia coli ATCC 25922 and E. coli BAA 3051.
(§2) Peptides were assessed for their MIC against various bacterial strains. Peptides were serially diluted at two x final concentration across a 96 well plate with the final well containing no peptide and control lanes of no antibacterial agent, and lanes of no bacteria or antibacterial agent. All dilutions were in sterile MHB. Each bacterial strain was grown overnight before inoculation of a fresh culture in the morning of assay, the culture was allowed to grow until OD600 = ∼1.0 before dilution to achieve 2 × 10^6 CFU/ml based of the equations 2e+7e^(2.9218∗OD600) for E. coli and 2e+7e^(2.5537∗OD600). Bacteria were added 1:1 to wells containing the serially diluted peptide(s) and were allowed to grow for 6 h, in regards to E. coli, or 24 h, in regards to S. aureus, before measuring OD620 on a plate reader. Bacterial growth per well was determined using the following equation: Bacterial growth %= (OD600 sample−OD600 negative control)/(OD600 positive control−OD600 negative control)×100
(§3) The MIC breakpoint was determined using GraphPad PRISM observing for the concentration at which growth surpassed 10%.
FIGURE 2 Minimum inhibitory concentration of potential PrAMPs. […]

[2] = test system: DnaK; conditions: peptide 300 µM; 0.3 µM DnaK; 20 mM TRIS, 150 mM KCl, 5 mM MgCl2, 1 mM ATP, pH 7.5; 1 h at 37°C; Malachite Green, A620; result in words (Figure 1)
Protocol: Peptides were assessed for their capacity to inhibit the ATPase activity of DnaK by a colorimetric assay. Peptide at 300 µM concentration were assayed in 100 µl format where each reaction contained 0.3 µM of DnaK in DnaK assay buffer (20 mM TRIS, 150 mM KCl, 5 mM MgCl2, 1 mM ATP, pH 7.5). After 60 min, 20 µl samples were taken (3 x per reaction) for assessment by Malachite Green Phosphate assay kit (Sigma—MAK307). The samples were added to 80 µl of Milli-Q water in a 96 well plate, before adding 20 µl of staining solution, and incubated at room temperature for 30 min before measuring A620 on a plate reader ([Zahn et al., 2013]). A negative control was included for each peptide where the same assay conditions are used in the absence of DnaK. The relative activity of DnaK in the presence of each of the putative DnaK binding peptides was assessed using the following equation: DnaKacitivity %= (OD620 sample−OD620 negative control)/(OD620 positive control−OD620 negative control) × 100
We selected four potential PrAMPs from the list of newly identified PrAMPs for evaluation. […] Each was chemically synthesized, purified, and exchanged into HCl salt prior to investigation of antimicrobial properties (Supplementary Information, Supplementary Figure S1). The ability of the potential PrAMPs to modulate the activity of DnaK was assessed at 300 µM in vitro through a colorimetric assay with a known binder of DnaK, oncocin, as a positive control peptide (Figure 1).
Each was incubated with DnaK for 1 h at 37°C and the free phosphate generated was detected with a Malachite Green-based stain. Activities are reported in % activity relative to DnaK positive and DnaK negative samples with constraints at 0% activity. All peptides were assayed at 300 µM. One-way ANOVA followed by Dunnett’s multiple comparisons test was performed to compare the control (DnaK) to each of the peptides, p < 0.05 (*) and p < 0.001 (**) are indicated.

[3] = test system: E. coli; conditions: Gram-negative bacterium; ref Ngai and Ng, 2004; cited from earlier work
Protocol: (§4) It is interesting to note that the peptides tested which inhibit DnaK are in fact not antimicrobial at concentrations of 128 µM or less. This may be because the peptides act in vivo as part of a complex multi-peptide cocktail with synergistic effects.

[4] = test system: Bacillus subtilis; conditions: Gram-positive bacterium; ref Ngai and Ng, 2004; cited from earlier work
Protocol: as §4

[5] = test system: Escherichia coli ATCC 25922 and E. coli BAA 3051; assay: Antibacterial MIC assay, E. coli; type: cell-based; conditions: MHB, serial dilution up to 128 µM, 6 h growth, OD read-out, MIC = concentration at which growth surpassed 10%; result in words
Protocol: as §1, §2, §3
FIGURE 2 Minimum inhibitory concentration of potential PrAMPs. Each of the potential PrAMPs were assayed for MIC against E. coli ATCC 25922 (A), E. coli BACC 3051 (B), and S. aureus 29213 (C), up to 128 µM in MHB media.

[6] = test system: E. coli ATCC 25922; assay: MIC of peptide combinations (synergy); type: cell-based, Escherichia coli; conditions: equimolar combination with oncocin or P9, Figure 3
Protocol: as §2, §3
One potential reason is that these peptides are unable to access the cytoplasm of the cell. Consequently, the synergistic capacity of PP30, attacin-C, and antibacterial napin with oncocin or P9 was examined (Figure 3).
(A) MIC assessment of oncocin with/without antibacterial napin/PP30/attacin-C. (B) MIC assessment of P9 with/without antibacterial napin/PP30/attacin-C. Each peptide is present in equimolar concentration with the individual concentration shown in the X axis.

[7] = test system: DnaK; conditions: ref Krizsan et al., 2014; cited from earlier work
Excerpt: Recently, we assessed a new set of criteria for PrAMPs and scanned the DRAMP database (http://dramp.cpu-bioinfor.org/) to detect novel PrAMPs based on similarity to known DnaK inhibitors ([Welch et al., 2020]). […] Here, we undertook screening of these putative new ...

[8] = test system: bacterial membrane; conditions: ref Shen et al., 2010; cited from earlier work
Excerpt: This dual mode of action of PP30, membrane lysis and DnaK […], is novel and unreported for other native PrAMPs.

PAQPFRFPKHPQGPQTRPPI [Antibacterial napin, predicted PrAMP from the DRAMP database, chemically synthesized 20-residue peptide]
Antimicrobial activity (MIC assessment) against S. aureus [1]: inactive | Effect on DnaK activity (ATP hydrolysis), % activity relative to DnaK positive and negative samples [2]: inhibit DnaK activity | Activity against E. coli [3]: inactive | Activity against Bacillus subtilis [4]: active | Antimicrobial activity (MIC assessment) against E. coli [5]: inactive; also recorded: lack of direct antimicrobial activity | Synergy in combination treatment (MIC) [6]: no synergistic effects

QRPYTQPLIYYPPPPTPPRIYRA [Attacin-C, predicted PrAMP from the DRAMP database, chemically synthesized 23-residue peptide]
Effect on DnaK activity (ATP hydrolysis), % activity relative to DnaK positive and negative samples [2]: inhibit DnaK activity | Antimicrobial activity (MIC assessment) against E. coli [5]: lack of direct antimicrobial activity | Synergy in combination treatment (MIC) [6]: no synergistic effects

RFIPPILRPPVRPPFRPPFRPPFRPPPIIRFFGG [P9, predicted PrAMP from the DRAMP database, chemically synthesized 34-residue peptide]
Effect on DnaK activity (ATP hydrolysis), % activity relative to DnaK positive and negative samples [2]: increases the ATP hydrolysis of DnaK | Antimicrobial activity (MIC assessment) against E. coli [5]: potent antimicrobial activity

VDKPPYLPRPRPPRRIYNR [Oncocin]
DnaK binding [7]: DnaK binder

YVPPVQKPHPNGPKFPTFP [PP30, predicted PrAMP from the DRAMP database, chemically synthesized 19-residue peptide]
Effect on DnaK activity (ATP hydrolysis), % activity relative to DnaK positive and negative samples [2]: inhibit DnaK activity | Membrane-lytic action [8]: membrane-lytic | Antimicrobial activity (MIC assessment) against E. coli [5]: has not however resulted in observable MICs; also recorded: lack of direct antimicrobial activity | Synergy in combination treatment (MIC) [6]: no synergistic effects
